Measurements taken from article PMC10193983 (Proceedings of the National Academy of Sciences of the …, 2023).

Target: MnMT4
Assay: biolayer interferometry
Type: binding, Mycolicibacterium neoaurum

Row | Kd | Structure (SMILES)
1 | 0.0291 µM | Nc1ncnc2c1ncn2[C@@H]1O[C@H](CSCC[C@H](N)C(=O)O)[C@@H](O)[C@H]1O [SAH]
2 | 18.4 µM | C[S+](CC[C@H](N)C(=O)[O-])C[C@H]1O[C@@H](n2cnc3c(N)ncnc32)[C@H](O)[C@@H]1O (some centres unmarked) [SAM]
